Usually IC50 stands for the concentration that inhibits the measured activity by half.

For data set [1] the following is noted: introduction, background statement; ref Jilani et al., 2013; cited from earlier work.
The nature of data set [2]: effect of 17-DMAG on uninfected mice. The format is in vivo, BALB/c mice. Here is the method:
(§1) Prior to the subculture of parasites, bovine and equine RBC were incubated with 1 μM of 17-DMAG for 3 h. The RBC were washed three times with PBS and mixed with B. bovis and T. equi parasitized RBC to obtain 1% parasitemia (infected RBC). Subsequently, 100 μl of infected RBC was added to 900 μl of complete medium in a 24-well plate. The untreated erythrocytes were used as a control. The parasitemia was monitored daily via microscopy observation of a Giemsa-stained blood smear for 4 days. Furthermore, the effect of 17-DMAG on mice was evaluated using 8-week-old BALB/c mice. Groups 1 and 2, consisting of three mice each, received intraperitoneal injections of 17-DMAG at a concentration of 15 and 30 mg/kg BW, respectively, for 5 days. One group (three mice) remained as an untreated control.

Data set [3] deals with B. bovis. The experiment in a line: effect of 17-DMAG on host erythrocytes: parasite subculture in pretreated bovine RBC. It is filed as cell-based, Babesia bovis. Conditions: bovine RBC incubated with 1 μM for 3 h, parasitemia 4 days. Here is the method: as §1
The subject of data set [4] is B. caballi (USDA strain). In words: in vitro multiplication inhibition assay (SYBR Green I fluorescence, 96 h), single drugs and two-drug combinations. The following applies: for IC50: Babesia caballi, B. caballi, 96 h, triplicate, mean ± SD, read-out: IC50 on in vitro culture of parasites; for Selectivity index MDBK: ratio IC50 MDBK to IC50 B. caballi; for Selectivity index NIH/3T3: ratio IC50 NIH/3T3 to IC50 B. caballi. It is filed as cell-based, Babesia caballi. Here is the method:
(§2) Babesia parasite cultures were maintained using a microaerophilic stationary-phase culture system ([Levy and Ristic, 1980]; [Avarzed et al., 1997]; [Igarashi et al., 1998]). Briefly, bovine Babesia parasites were grown in bovine red blood cells (RBC) in the specific complete medium for each species. The medium for B. bovis (Texas strain) contained GIT medium supplemented with 10% bovine serum, while the medium for B. bigemina (Argentina strain) and B. divergens (Germany strain) was Medium 199 and RPMI 1640 medium, respectively, supplemented with 40% bovine serum ([Rizk et al., 2016]). B. caballi (USDA strain) was grown using equine RBC in GIT medium supplemented with 10% equine serum. T. equi (USDA strain) was grown in equine RBC in M199 medium supplemented with 40% equine serum and hypoxanthine (MP Biomedicals, USA) at a final concentration of 13.6 μg/ml. All of the media included 60 U/ml penicillin G, 60 μg/ml streptomycin, and 0.15 μg/ml amphotericin B (Sigma-Aldrich, USA). The cultures were incubated at 37 °C in a humidified chamber with an atmosphere of 5% CO2, 5% O2, and 90% N2.
(§3) The assays were conducted in accordance with the protocol described previously with modification ([Guswanto et al., 2014]). Briefly, the cultures of B. bovis, B. bigemina, B. divergens, B. caballi, and T. equi with a parasitemia of 8%, 3%, 10%, 4%, and 9%, respectively, were harvested and adjusted to 1% parasitemia with fresh RBC before the inhibition assay. The 60 inner wells of a 96-well plate were used in the assay, while the peripheral wells were filled with sterile distillate water to reduce evaporation during incubation. To each well in triplicate, 2.5 μl of infected RBC (5 μl for B. divergens, B. caballi, and T. equi) was added and mixed with a culture medium containing the drug to a total volume of 100 μl. The stock solution of 17-DMAG, DA, and AV was dissolved in a culture medium at various concentrations using two-fold dilution. A culture medium containing DMSO at a final concentration of 0.2% was added to the well with infected RBC as a positive control and to the well with uninfected RBC as a negative control. Furthermore, a drug combination assay was conducted in parallel with the single drug assay at the constant ratio in accordance with the Chou–Talalay method ([Chou, 2006]). In the same plate with a single drug inhibition assay, a two-drug combination (DA+17-DMAG, DA + AV, and 17-DMAG + AV) at concentrations of 0.25 x IC50, 0.5 x IC50, IC50, 2 x IC50, and 4 x IC50 was added to the well containing infected RBC in triplicate. The plate was incubated in a humidified incubator with 5% CO2, 5% O2, and 90% N2. After 96 h, 100 μl of a lysis buffer containing SYBR Green I was added to each well. The plate was wrapped with aluminum foil to avoid direct light exposure and incubated at room temperature. After incubation for 6 h, fluorescence values were measured using a fluorescence spectrophotometer (Fluoroskan Ascent, Thermo Fisher Scientific, USA) with the excitation and emission wavelength at 485 nm and 518 nm, respectively. The fluorescence data were subtracted from the negative control and used to calculate the IC50.
(§4) The IC50 of 17-DMAG, DA, and AV was calculated from the percentage of inhibition on the in vitro multiplication of all tested species using non-linear regression (curve fit), available in GraphPad Prism (GraphPad Software Inc., USA). Combination index (CI) values for the drug combination were calculated using CompuSyn software ([Chou, 2006]). Since the chemotherapy effect is preferable at the highest inhibition, the degree of synergism was determined as the weighted average of CI values using a formula ((1 x IC50) + (2 x IC75) + (3 x IC90) + (4 x IC95))/10 ([Chou, 2006]). The differences among groups regarding the parasitemia, hematology profiles, and body weight in the B. microti–infected mouse model were analyzed using Student's t-test, available in GraphPad Prism software.

Data set [5] has as its system T. equi. In words: effect of 17-DMAG on host erythrocytes: parasite subculture in pretreated equine RBC. It is filed as cell-based, Theileria equi. Conditions: equine RBC incubated with 1 μM for 3 h, parasitemia 4 days. On the procedure: as §1
In data set [6] the test system is B. bigemina (Argentina strain). The experiment in a line: in vitro multiplication inhibition assay (SYBR Green I fluorescence, 96 h), single drugs and two-drug combinations. The format is cell-based, Babesia bigemina. The following applies: for IC50: Babesia bigemina, B. bigemina, 96 h, triplicate, mean ± SD, read-out: IC50 on in vitro culture of parasites; for Selectivity index MDBK: ratio IC50 MDBK to IC50 B. bigemina; for Selectivity index NIH/3T3: ratio IC50 NIH/3T3 to IC50 B. bigemina. Here is the method:
as §2, §3, §4

Data set [7] relates to B. bovis (Texas strain). The data set is described as above. The format is cell-based, Babesia bovis. Conditions: for IC50: Babesia bovis, in Bos taurus, B. bovis, 96 h, triplicate, mean ± SD, read-out: IC50 on in vitro culture of parasites; for Selectivity index MDBK: ratio IC50 MDBK to IC50 B. bovis; for Selectivity index NIH/3T3: ratio IC50 NIH/3T3 to IC50 B. bovis. Here is the method:
as §2, §3, §4

Data set [8] concerns T. equi (USDA strain). Described as above. It is filed as cell-based, Theileria equi. The following applies: for IC50: Theileria equi, T. equi, 96 h, triplicate, mean ± SD, read-out: IC50 on in vitro culture of parasites; for Selectivity index MDBK: ratio IC50 MDBK to IC50 T. equi; for Selectivity index NIH/3T3: ratio IC50 NIH/3T3 to IC50 T. equi. On the procedure:
as §2, §3, §4

Data set [9] concerns B. divergens (Germany strain). The data set is described as above. It is filed as cell-based, Babesia divergens. The following applies: for IC50: Babesia divergens, B. divergens, 96 h, triplicate, mean ± SD, read-out: IC50 on in vitro culture of parasites; for Selectivity index MDBK: ratio IC50 MDBK to IC50 B. divergens; for Selectivity index NIH/3T3: ratio IC50 NIH/3T3 to IC50 B. divergens. On the procedure: as §2, §3, §4

Molecules are shown by their SMILES. Bounds are passed on as bounds.

Consider `CO[C@H]1/C=C\C=C(/C)C(=O)NC2=CC(=O)C(NCCN(C)C)=C(C[C@@H](C)C[C@H](OC)[C@H](O)[C@@H](C)/C=C(\C)[C@@H]1OC(N)=O)C2=O` [17-DMAG, 17-dimethylaminoethylamino-17-demethoxygeldanamycin], for which, in data set [1], the solubility entry is listed as “water soluble”. Besides, the mouse body weight entry is “did not show any effect” in data set [2] (15 mg/kg BW intraperitoneal for 5 days) and “reduced slightly” in data set [2] (30 mg/kg BW intraperitoneal for 5 days, day 10 post treatment, not significantly different from control). For the same compound, the “multiplication of B. bovis in 17-DMAG-treated RBC versus normal RBC” value in data set [3] is “did not significantly differ”. For the same compound, the half-maximal inhibitory concentration (IC50) was 88.5 ± 9.6 nM in data set [4]; 62.4 ± 1.9 nM in data set [6]; 77.6 ± 2.9 nM in data set [7]; 308 ± 7.2 nM in [8]; 184 ± 3.2 nM in [9]. The “Selectivity index MDBK” value in data set [4] came to 99; in data set [6], 141; in data set [7], 113; in data set [8] it was 29; in [9], 48. The “Selectivity index NIH/3T3” value came out at 175 in data set [4]; 248 in data set [6]; 200 in [7]; 50 in data set [8]; 84 in [9]. The “multiplication of T. equi in 17-DMAG-treated RBC versus normal RBC” value in data set [5] is reported as “did not significantly differ”.
As for `O=C1C(O)=C([C@H]2CC[C@H](c3ccc(Cl)cc3)CC2)C(=O)c2ccccc21` [AV, atovaquone], the half-maximal inhibitory concentration (IC50) in data set [4] is 102 ± 14.1 nM; in data set [6], 706 ± 38.7 nM; in data set [7] it was 39.7 ± 2.4 nM; in [8], 95 ± 65 nM; in [9], 13.4 ± 1.4 nM. Moreover, the “Selectivity index MDBK” value in data set [4] is more than 393; in data set [6] it was more than 57; in data set [7], more than 1008; in [8] it was more than 421; in data set [9], more than 2985. For the same compound, the “Selectivity index NIH/3T3” value is more than 393 in data set [4]; more than 57 in [6]; more than 1008 in [7]; more than 421 in [8]; more than 2985 in data set [9].

The values above are taken from PMC6114103, “17-DMAG inhibits the multiplication of several Babesia species and Theileria equi on in vitro cultures, and Babesia microti in mice” (International Journal for Parasitology: Drugs and Drug …, 2018).
